Source: article PMC6245648 (Chemical research in toxicology, 2016)
Like-named read-outs stand apart in the source and are kept apart here.

Legend:
Type in all cases: cell-based
[1] = target: T1, mitochondrial complex I (NADH: ubiquinone oxidoreductase) (Rattus norvegicus, UniProt A6K8N6+P03889+Q641Y2); conditions: read-out: % inhibition at 200 μM
[2] = target: T1, mitochondrial complex I (NADH: ubiquinone oxidoreductase); conditions: read-out: % inhibition at 10 μM
[3] = target: T1, mitochondrial complex I (NADH: ubiquinone oxidoreductase); conditions: read-out: % inhibition at 10 μM; remark: listed apart in the source
[4] = target: T1, mitochondrial complex I (NADH: ubiquinone oxidoreductase); conditions: read-out: % inhibition at 10 μM; remark: listed apart in the source
[5] = target: T1, mitochondrial complex I (NADH: ubiquinone oxidoreductase); conditions: read-out: % inhibition at 10 μM; remark: listed apart in the source
[6] = target: T1, mitochondrial complex I (NADH: ubiquinone oxidoreductase); conditions: read-out: % inhibition at 10 μM; remark: listed apart in the source

`C[n+]1ccc(-c2ccccc2)cc1` [A, 1-methyl-4-phenylpyridinium] gave an inhibition at 200 µM [1] of 12.5%.
`CCN1C(=Cc2ccc3ccccc3[n+]2CC)C=Cc2ccccc21` [B, 2,2’-cyanine] gave an inhibition at 10 µM [2] of 70.8%.
With `CCN1C=CC(=Cc2cc[n+](CC)c3ccccc23)c2ccccc21` [C, 4,4’-cyanine] the inhibition at 10 µM [3] was 60.8%.
`CCN1C(=CC=Cc2oc3ccccc3[n+]2CC)Oc2ccccc21` [D, DiOC2(3)] was tested, and the inhibition at 10 µM [4] was 79%.
For `CCCN1C(=CC=Cc2sc3ccccc3[n+]2CCC)Sc2ccccc21` [E, DiSC3(3)], the inhibition at 10 µM [5] was 83%.
`CCCN1C(=CC=CC=Cc2sc3ccccc3[n+]2CCC)Sc2ccccc21` [F, DiSC3(5)] gave an inhibition at 10 µM [5] of 83%.
`C=C(C)[C@H]1Cc2c(ccc3c2O[C@@H]2COc4cc(OC)c(OC)cc4[C@@H]2C3=O)O1` [H, rotenone] showed an inhibition at 10 µM [6] of 88%.
